The record followed here is PMC13489962, “Small-molecule modulation of β-arrestins” (Nature, 2026).

Experiment [1] has as its target T1, βARR1 L129G (Rattus norvegicus, UniProt P29066, L129G).
T1 construct: βARR1 or βARR2 construct, with their C terminus truncated (at amino acid 393 or 394, respectively); GST (pGEX4T1) (N, cleaved yes); made in house; host or cells: E. coli BL21 (DE3) pLysS
As to the kind of experiment: ITC binding to βARR1 mutant L129G. To be noted: 25 °C. On the procedure: (§1) The expression and purification of β-arrestins have been described previously[44],[62]–[64]. In brief, E. coli BL21 (DE3) pLysS cells (New England Biolabs: C2527I) carrying pGEX4T1-Rattus norvegicus βARR1 or βARR2 construct, with their C terminus truncated (at amino acid 393 or 394, respectively), were cultured in Terrific Broth (Teknova) medium at 37 °C. After OD600 reached 0.6–0.8, the cells were induced with 0.1 mM isopropyl-β-D-thiogalactopyranoside (IPTG) at 18 °C overnight. Bacteria were collected by centrifugation (4,000 rpm), and cell pellets were resuspended in lysis buffer (20 mM HEPES, pH 8, 150 mM NaCl, 10% glycerol, 1 mM EDTA, 0.2 mM dithiothreitol (DTT), 1 mM phenylmethylsulfonyl fluoride, and 1 mM benzamidine) at 4 °C for 1 h. […] Eluted fractions were analysed by SDS–PAGE, pooled, concentrated using 30 kDa MWCO Amicon Ultra-15 Centrifugal Filter devices, flash-frozen in liquid nitrogen, and stored in aliquots at −80 °C. […] Protein concentrations for each protein were determined by ultraviolet absorption at 280 nm and extinction coefficients estimated using the ExPASy ProtParam tool[67].
(§2) ITC measurements were performed on a MicroCal iTC200 system at 25 °C. […] Protein concentrations were determined by spectrophotometry at 280 nm, using extinction coefficients calculated from each protein sequence via the ProtParam program. […]

In experiment [2] the target is T2, βARR1 E134A (Rattus norvegicus, UniProt P29066, E134A).
T2 construct: βARR1 or βARR2 construct, with their C terminus truncated (at amino acid 393 or 394, respectively); GST (pGEX4T1) (N, cleaved yes); made in house; host or cells: E. coli BL21 (DE3) pLysS
In words: ITC binding to βARR1 mutant E134A. The conditions noted are these: 25 °C. On the procedure:
as §1, §2

Experiment [3] has as its target T3, βARR1 K138A (Rattus norvegicus, UniProt P29066, K138A).
T3 construct: βARR1 or βARR2 construct, with their C terminus truncated (at amino acid 393 or 394, respectively); GST (pGEX4T1) (N, cleaved yes); made in house; host or cells: E. coli BL21 (DE3) pLysS
In words: ITC binding to βARR1 mutant K138A. The conditions noted are these: 25 °C. The protocol: as §1, §2

For experiment [4], the target named is T4, βARR1 C251A (Rattus norvegicus, UniProt P29066, C251A).
T4 construct: βARR1 or βARR2 construct, with their C terminus truncated (at amino acid 393 or 394, respectively); GST (pGEX4T1) (N, cleaved yes); made in house; host or cells: E. coli BL21 (DE3) pLysS
As to the kind of experiment: ITC binding to βARR1 mutant C251A. On the procedure:
as §1, §2

The subject of experiment [5] is βARR2 conformation (AT1R). In words: Intramolecular FlAsH-BRET βARR2 conformational sensors. The conditions noted are these: 50 μM, 15 min; AngII 10 μM. In kind it is cell-based, human. The protocol: Intramolecular FlAsH-BRET assays[72] were performed in HEK293 βARR1/2-knockout cells transiently transfected using FuGENE4K with 2 μg total DNA per 15 cm dish. Cells were transfected with 1.5 μg of pcDNA3.1 encoding human AT1R and 0.4 μg of a plasmid encoding the indicated RLuc–β-arrestin2–FlAsH biosensors. Twenty-four hours after transfection, cells were replated into poly-D-lysine-coated 96-well white, clear-bottom plates at 100,000 cells per well in MEM supplemented with 10% FBS. Forty-eight hours after transfection, cells were labelled with FlAsH-EDT2 (FlAsH II In-Cell Tetracysteine Detection Kit, Thermo Fisher) at a final concentration of 2.5 μM for 30 min at room temperature. Following labelling, cells were washed twice with BAL wash buffer (250 μM 2,3-dimercapto-1-propanol in HBSS), then equilibrated in HBSS supplemented with 20 mM HEPES (pH 7.4). Modulators were applied at 50 μM for 15 min, followed by addition of Prolume Purple substrate (Nanolight Technologies). Cells were then stimulated with 10 μM angiotensin II. BRET signals were recorded using a CLARIOstar Plus plate reader in kinetic mode (480 nm donor, 530 nm acceptor) for 30 min, and peak values were used for quantification. ΔNet BRET was calculated by subtracting baseline values from each condition, including agonist alone, modulator alone, or agonist plus modulator.
For orientation: In BRET a luciferase serves as donor, and the signal depends on an acceptor being close.

T4 sequence (P29066 1-393 C251A): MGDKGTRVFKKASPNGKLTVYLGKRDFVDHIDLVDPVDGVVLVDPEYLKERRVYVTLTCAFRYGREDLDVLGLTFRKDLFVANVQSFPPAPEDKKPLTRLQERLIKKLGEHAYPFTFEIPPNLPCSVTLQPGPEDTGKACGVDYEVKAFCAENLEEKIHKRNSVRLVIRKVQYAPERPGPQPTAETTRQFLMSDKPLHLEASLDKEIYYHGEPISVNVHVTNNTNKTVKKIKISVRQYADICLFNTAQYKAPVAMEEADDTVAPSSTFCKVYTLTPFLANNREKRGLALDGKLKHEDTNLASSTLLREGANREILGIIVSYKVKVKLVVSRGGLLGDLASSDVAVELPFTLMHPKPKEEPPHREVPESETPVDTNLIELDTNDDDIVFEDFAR
T2 sequence (P29066 1-393 E134A): as the sequence (P29066 1-393 C251A) above, with E134A, A251C counted along it
T1 sequence (P29066 1-393 L129G): as the sequence (P29066 1-393 C251A) above, with L129G, A251C counted along it
T3 sequence (P29066 1-393 K138A): as the sequence (P29066 1-393 C251A) above, with K138A, A251C counted along it

Regarding `C=C1C(=O)[C@]23[C@H](O)[C@H]1CC[C@H]2[C@@]12CO[C@]3(O)[C@@H](O)[C@@H]1C(C)(C)CC[C@@H]2O` [Cmpd-5, (1S,4aR,5S,6S,6aR,9S,11aS,11bS,14R)-1,5,6,14-tetrahydroxy−4,4-dimethyl-8-methylenedecahydro-1H-6,11b-(epoxymethano)-6a,9-methanocyclohepta[a]naphthalen-7(8H)-one], the Kd (as a rule, a measure of binding affinity in units of concentration) in experiment [1] came out at 2000 ± 700 nM; in experiment [2], 2200 ± 500 nM; in experiment [3], 1000 ± 300 nM; in experiment [4] (25 °C), 3000 ± 1000 nM. For the same molecule, the “ΔH, βARR1 E134A” value in experiment [2] is -1.2 kcal/mol. Also, the “Kd fold over WT, βARR1 C251A” value in experiment [4] came to 8.3 fold. The “effect on AngII-induced active βarr2 FlAsH-BRET signature” value in experiment [5] is given as “largely attenuates this active signature”.
